# Test results: article PMC12376128, “In vitro and In Vivo Drug Metabolism Analysis of BPI-460372 - A Covalent TEAD1/3/4 Inhibitor” (Current Drug Metabolism, 2025)
# Where two headings read alike, the source gives them in different places.
# How the values were obtained:
# [1] = system: rat hepatocytes; experiment: Metabolism and metabolite formation in hepatocytes; type: in vitro ADME, SD rat;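 on Area Ratio T0 h: peak area of analyte divided by internal standard peak area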
# Description: (§1) All the samples were duplicates.
# [2] = system: mouse hepatocytes; experiment: Metabolism and metabolite formation in hepatocytes; type: in vitro ADME, ICR mouse;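 on Area Ratio T0 h: peak area of analyte divided by internal standard peak area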;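 on Area Ratio T4 h: peak area of analyte divided by internal standard peak area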
# Description: as §1
# [3] = system: monkey hepatocytes; experiment: Metabolism and metabolite formation in hepatocytes; type: in vitro ADME, cynomolgus monkey;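 on Area Ratio T4 h: peak area of analyte divided by internal standard peak area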
# Description: as §1
# [4] = system: dog hepatocytes; experiment: Metabolism and metabolite formation in hepatocytes; type: in vitro ADME, beagle dog;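 on Area Ratio T0 h: peak area of analyte divided by internal standard peak area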;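 on Area Ratio T4 h: peak area of analyte divided by internal standard peak area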
# Description: as §1
# [5] = system: human hepatocytes; experiment: Metabolism and metabolite formation in hepatocytes
# Description: (§5) 10 µM BPI-460372 was incubated in five species (human, cynomolgus monkey, beagle dog, SD rat, and ICR mouse) hepatocytes (1 × 10^6 cells·min^-1) at 37 °C for 4 h. 7-EC, as positive control, was incubated for 0 h and 4 h. For blank control, hepatocytes were inactivated by adding ice-cold acetonitrile, and then the BPI-460372 solution was added. All the samples were duplicates. Incubations were stopped using the same volume of cold acetonitrile. The tube was vortexed, and the duplicate samples were combined. Metabolite profiling and identification of BPI-460372 were conducted by using UHPLC-Orbitrap-HRMS. The samples of 7-EC were analyzed by LC-MS/MS and then semi-quantified using the peak area ratio of analyte versus IS.
# (§6) For hepatocyte metabolite identification, the different metabolites of BPI-460372 were detected using an ACQUITY UPLC HSS T3 column (1.8 µm, 100 mm × 2.1 mm) and ACQUITY UPLC BEH C18 column (1.7 µm, 100 mm × 2.1 mm) for rat and dog metabolite identification. The mobile phase contained a mixture of 0.1% formic acid in water (A) and 0.1% formic acid in acetonitrile (B). The gradient elution program was as follows: 0.0-1.0 min, 5% B; 1.0-7.0 min, 5%-30% B; 7.0-12.0 min, 30%-80% B; 12.0-16.0 min, 80%-95% B; 16.0-18.0 min, 95% B; 18.0-18.1 min, 95%-5% B. Then, 5% B from 18.1 to 20.0 min was maintained for equilibration. The flow rate was set to 0.5 mL/min, and the column temperature was kept at 40°C. Eluted fractions were monitored by a UV detector at 314 nm.
# [6] = system: human hepatocytes; settings: 0 h
# Description: as §5, §6
# [7] = design: method as in PMID 32250617; settings: dog whole blood, compared with compound 18 (acrylamide warhead); cited from earlier work
# [8] = design: method as in PMID 32250617; settings: mouse whole blood, compared with compound 18 (acrylamide warhead); cited from earlier work
# [9] = design: method as in PMID 32250617; settings: human whole blood, compared with compound 18 (acrylamide warhead); cited from earlier work
# [10] = Formation of M335 in HLMs with and without NADPH; type: in vitro ADME, human; settings: 45 minutes of incubation of BPI-460372 with HLMs
# [11] = system: TEAD palmitoylation; experiment: Inhibition of TEAD palmitoylation (in vitro); type: biochemical; settings: in vitro studies
# [12] = system: cysteine S-conjugate β-lyase; experiment: Effect of cysteine S-conjugate β-lyase inhibitor AOAA on the metabolism of BPI-460372 (rat urine); settings: 20 mg/kg BPI-460372 + 100 mg/kg AOAA, once daily 21 days, urine 0-48 h on day 21
# Description: To investigate the effect of cysteine S-conjugate β-lyase on the metabolism of BPI-460372, SD rats were treated with 20 mg/kg BPI-460372 alone (n=3, male) or 20 mg/kg BPI-460372 coadministration with 100 mg/kg cysteine S-conjugate β-lyase inhibitor AOAA (n=3, male), once daily for 21 consecutive days. On day 21, urine samples were collected at 0-8, 8-24 and 24-48 h. The same percentage of urine samples from each rat was taken at these three time intervals and mixed. The samples were analyzed by LC-MS/MS and then semi-quantified using the peak area ratio of analyte versus IS.
# [13] = system: TEAD proteins; experiment: Covalent binding to TEAD proteins (in vitro); settings: in vitro studies
# [14] = Metabolite identification in rat plasma, urine, feces and bile; type: in vivo, SD rats
# Description: (§2) The plasma samples were acquired from SD rats (n=6, 3 female and 3 male) and beagle dogs (n=6, 3 female and 3 male) after administration of 12 mg/kg and 8 mg/kg of BPI-460372, respectively. The rat urine, feces, and bile samples were acquired in SD rats after administration of 6 mg/kg of BPI-460372.
# (§3) Equal volume from each rat was pooled together to get 1 male and 1 female 0-24 h plasma samples. An equal percentage by volume of individual urine sample (0-8, 8-24, and 24-48 h) from 3 female and 3 male rats was pooled by time interval across rats, respectively, resulting in two pooled urine samples (1 male and 1 female). An equal percentage by weight of individual feces samples (0-8, 8-24, and 24-48 h) was pooled by time interval across female and male rats, resulting in two pooled fecal samples. An equal percentage by volume of individual bile samples (0-4, 4-8, 8-24, and 24-48 h) was pooled by time interval across female and male rats, resulting in two pooled bile samples. […] Equal volumes from 3 female and 3 male rats were pooled together to get two 0-48 h plasma samples. For blank samples of plasma, urine, and bile, equal volume was pooled across subjects. For a blank sample of feces, equal weight was pooled across rats.
# (§4) The pooled plasma, feces, and bile samples were extracted by adding 3-fold volume of acetonitrile, and the mixture was vortexed (1 min) and sonicated (1 min) before centrifugation (7220 g, 5 min). The pooled urine samples were centrifuged (7220 g, 5 min). Then the supernatant was transferred into a clean tube and evaporated to dryness under the nitrogen stream. The residues were redissolved with an appropriate volume of acetonitrile/water (20: 80, v: v). After centrifugation, the redissolved solution was transferred into an HPLC vial for UHPLC-Orbitrap-HRMS (15000 g, 10 min, 4°C).
# [15] = Metabolite identification in dog plasma; type: in vivo, beagle dogs; settings: oral 8 mg/kg BPI-460372, average of male and female pooled samples
# Description: as §2, §3, §4
# [16] = system: CYPs and GSTs; design: method as in earlier work; settings: multiple CYPs and GSTs pathways; cited from earlier work
# [17] = oral 6 mg/kg BPI-460372, average of male and female pooled samples
structure (smiles),measurement,setting,value
"CCOc1ccc2ccc(=O)oc2c1 [7-EC, 7-ethoxycoumarin, reference compound]",Area Ratio T0 h,"[1]; rat hepatocytes, 7-EC incubation, 0 h",2.64E+07
same,Area Ratio T4 h,"[1]; rat hepatocytes, 7-EC incubation, 4 h",6.62E+06
same,Proportion of 7-EC remaining in hepatocytes after 4 h incubation,"[1]; rat, hepatocytes",25.08%
same,Area Ratio T0 h,"[2]; mouse hepatocytes, 7-EC incubation, 0 h",2.39E+07
same,Area Ratio T4 h,"[2]; mouse hepatocytes, 7-EC incubation, 4 h",1.46E+05
same,Proportion of 7-EC remaining in hepatocytes after 4 h incubation,"[2]; mouse, hepatocytes",0.61%
same,Area Ratio T0 h,"[3]; monkey hepatocytes, 7-EC incubation, 0 h",2.65E+07
same,Area Ratio T4 h,"[3]; monkey hepatocytes, 7-EC incubation, 4 h",9.51E+04
same,Proportion of 7-EC remaining in hepatocytes after 4 h incubation,"[3]; monkey, hepatocytes",0.36%
same,Area Ratio T0 h,"[4]; dog hepatocytes, 7-EC incubation, 0 h",2.18E+07
same,Area Ratio T4 h,"[4]; dog hepatocytes, 7-EC incubation, 4 h",1.01E+05
same,Proportion of 7-EC remaining in hepatocytes after 4 h incubation,"[4]; dog, hepatocytes",0.46%
same,Area Ratio T4 h,"[5]; human hepatocytes, 7-EC incubation, 4 h",7.50E+06
same,Proportion of 7-EC remaining in hepatocytes after 4 h incubation,"[5]; human, hepatocytes",22.32%
same,Area Ratio T0 h,[6],3.36E+07
C=C(F)C(=O)N1CCN(c2nc(OC[C@@H]3CCCN3C)nc3c2CCN(c2cccc4cccc(Cl)c24)C3)C[C@@H]1CC#N [Adagrasib],Stability in whole blood,[7],higher stability
same,Stability in whole blood,[8],higher stability
same,Stability in whole blood,[9],higher stability
O=c1n(-c2ccc(C(F)(F)F)cc2)c2nccnc2n1C1CNC1 [M335 (BPI-460608)],UV (314 nm) Peak Areas Relative Abundance,"[1]; SD rat hepatocytes, 10 µM BPI-460372, 4 h incubation",3.9%
same,Formation of M335 without NADPH versus HLMs+NADPH group,[10],comparable
same,UV (314 nm) Peak Areas Relative Abundance,"[2]; ICR mouse hepatocytes, 10 µM BPI-460372, 4 h incubation",26.4%
same,Activity: inhibition of TEAD palmitoylation,[11],inactive
same,UV (314 nm) Peak Areas Relative Abundance,"[3]; cynomolgus monkey hepatocytes, 10 µM BPI-460372, 4 h incubation",16.99%
same,UV (314 nm) Peak Areas Relative Abundance,"[4]; beagle dog hepatocytes, 10 µM BPI-460372, 4 h incubation",18.82%
same,UV (314 nm) Peak Areas Relative Abundance,"[5]; human hepatocytes, 10 µM BPI-460372, 4 h incubation",11.47%
same,"Area ratio in rat urine, mean (%CV)",[12],1.41 (48)
same,Covalent binding to TEAD proteins,[13],do not covalently bind
same,"Relative abundance of MS peak areas, Rat Bile 0-48 h",[14]; [17],0.070%
same,"Relative abundance of MS peak areas, Rat Feces 0-48 h",[14]; [17],4.83%
same,"Relative abundance of MS peak areas, Rat Urine 0-48 h",[14]; [17],13.23%
same,"Relative abundance of MS peak areas, Rat Plasma 0-24 h","[14]; oral 12 mg/kg BPI-460372, average of male and female pooled samples",2.48%
same,"Relative abundance of MS peak areas, Dog Plasma 0-48 h",[15],8.45%
C=CC(=O)N1C[C@H](Nc2ncnc3[nH]ccc23)CC[C@@H]1C [Ritlecitinib],Contribution of any single route to the total metabolism,[16],≤ 25%
